{
  "source": "patent US7704995B2",
  "about": "(Exelixis, Inc., priority 2003, dated 2010)",
  "data": [
    {"molecular_target": "T1, Chk1 (Homo sapiens, UniProt O14757)", "T1 construct": "purchased Upstate Biotechnology", "T1 sequence (O14757 1-476)": "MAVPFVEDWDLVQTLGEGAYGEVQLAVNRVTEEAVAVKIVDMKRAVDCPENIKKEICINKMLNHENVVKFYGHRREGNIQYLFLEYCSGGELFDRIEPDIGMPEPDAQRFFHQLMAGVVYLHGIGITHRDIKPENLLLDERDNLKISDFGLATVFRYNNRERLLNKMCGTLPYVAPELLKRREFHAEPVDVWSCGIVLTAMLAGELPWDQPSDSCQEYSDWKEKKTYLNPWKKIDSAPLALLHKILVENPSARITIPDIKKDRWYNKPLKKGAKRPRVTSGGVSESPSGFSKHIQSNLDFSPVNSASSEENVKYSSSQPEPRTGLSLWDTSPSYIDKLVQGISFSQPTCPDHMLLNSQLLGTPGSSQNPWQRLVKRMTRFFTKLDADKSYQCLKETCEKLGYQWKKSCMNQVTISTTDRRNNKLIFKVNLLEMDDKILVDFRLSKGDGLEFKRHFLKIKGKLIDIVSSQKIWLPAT", "test": "Chk1 kinase assay: incorporation of γ-33P ATP into immobilized myelin basic protein", "format": "biochemical", "details": "read-out: Chk1 IC50", "summary_of_the_method": "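Read-out is scintillation counting of 33P incorporated into plate-bound myelin basic protein. Chk1 runs at 10 nM enzyme with 10 μM ATP, Chk2 at 20 nM with 30 μM ATP, each for 1 hour at room temperature. Duplicate points; IC50 taken as 50% activity reduction, Ki computed from IC50.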", "units": {"IC50": "nM"}, "values": [
      {"smiles": "CNC(=O)c1nc(-c2cccc(C(=O)NCc3ccc(Oc4ccccc4)cc3)c2)cnc1N", "note": "[Example 184, 3-amino-N-methyl-6-{3-[({[4-(phenyloxy)phenyl]methyl}amino)carbonyl]phenyl}pyrazine-2-carboxamide]", "IC50": "50 to 1000"},
      {"smiles": "CNC(=O)c1nc(-c2cccc(OCCN3CCOCC3)c2)cnc1N", "note": "[Example 185, 3-amino-N-methyl-6-{3-[(2-morpholin-4-ylethyl)oxy]phenyl}pyrazine-2-carboxamide]", "IC50": "1000 to 10000"},
      {"smiles": "CCCN(CCOc1cccc(-c2cnc(N)c(C(=O)NC)n2)c1)CC1CC1", "note": "[Example 186, 3-amino-6-[3-({2-[(cyclopropylmethyl)(propyl)amino]ethyl}oxy)phenyl]-N-methylpyrazine-2-carboxamide]", "IC50": "50 to 1000"},
      {"smiles": "CNC(=O)c1nc(-c2cccc(OCCN3CCC(Cc4ccccc4)CC3)c2)cnc1N", "note": "[Example 187, 3-amino-N-methyl-6-[3-({2-[4-(phenylmethyl)piperidin-1-yl]ethyl}oxy)phenyl]pyrazine-2-carboxamide]", "IC50": "50 to 1000"},
      {"smiles": "CNC(=O)c1nc(-c2cccc(OCCN3CCCCC3)c2)cnc1N", "note": "[Example 188, 3-amino-N-methyl-6-{3-[(2-piperidin-1-ylethyl)oxy]phenyl}pyrazine-2-carboxamide]", "IC50": "50 to 1000"},
      {"smiles": "CNC(=O)c1nc(-c2cccc(C(=O)NCc3cccc(Oc4ccccc4)c3)c2)cnc1N", "note": "[Example 189, 3-amino-N-methyl-6-{3-[({[3-(phenyloxy)phenyl]methyl}amino)carbonyl]phenyl}pyrazine-2-carboxamide]", "IC50": "50 to 1000"},
      {"smiles": "CCN1CCN(CCOc2cccc(-c3cnc(N)c(C(=O)NC)n3)c2)CC1", "note": "[Example 190, 3-amino-6-(3-{[2-(4-ethylpiperazin-1-yl)ethyl]oxy}phenyl)-N-methylpyrazine-2-carboxamide]", "IC50": "50 to 1000"},
      {"smiles": "CNC(=O)c1nc(-c2cccc(OCCN3CCCC3)c2)cnc1N", "note": "[Example 191, 3-amino-N-methyl-6-{3-[(2-pyrrolidin-1-ylethyl)oxy]phenyl}pyrazine-2-carboxamide]", "IC50": "50 to 1000"},
      {"smiles": "CNC(=O)c1nc(-c2cccc(OCCN3CCN(C)CC3)c2)cnc1N", "note": "[Example 192, 3-amino-N-methyl-6-(3-{[2-(4-methylpiperazin-1-yl)ethyl]oxy}phenyl)pyrazine-2-carboxamide]", "IC50": "50 to 1000"},
      {"smiles": "CNC(=O)c1nc(-c2cccc(OCCN3CCN(CCO)CC3)c2)cnc1N", "note": "[Example 193, 3-amino-6-[3-({2-[4-(2-hydroxyethyl)piperazin-1-yl]ethyl}oxy)phenyl]-N-methylpyrazine-2-carboxamide]", "IC50": "50 to 1000"},
      {"smiles": "CNC(=O)c1nc(-c2cccc(OCCN3CCc4ccccc4C3)c2)cnc1N", "note": "[Example 194, 3-amino-6-(3-{[2-(3,4-dihydroisoquinolin-2(1H)-yl)ethyl]oxy}phenyl)-N-methylpyrazine-2-carboxamide]", "IC50": "50 to 1000"},
      {"smiles": "CCOC(=O)N1CCN(CCOc2cccc(-c3cnc(N)c(C(=O)NC)n3)c2)CC1", "note": "[Example 195, ethyl 4-{2-[(3-{5-amino-6-[(methylamino)carbonyl]pyrazin-2-yl}phenyl)oxy]ethyl}piperazine-1-carboxylate]", "IC50": "1000 to 10000"},
      {"smiles": "CNC(=O)c1nc(-c2cccc(C(=O)N[C@H]3CCN(Cc4ccccc4)C3)c2)cnc1N", "note": "[Example 196, 3-amino-N-methyl-6-[3-({[(3S)-1-(phenylmethyl)pyrrolidin-3-yl]amino}carbonyl)phenyl]pyrazine-2-carboxamide]", "IC50": "50 to 1000"},
      {"smiles": "CNC(=O)c1nc(-c2cccc(C(=O)N[C@@H]3CCN(Cc4ccccc4)C3)c2)cnc1N", "note": "[Example 197, 3-amino-N-methyl-6-[3-({[(3R)-1-(phenylmethyl)pyrrolidin-3-yl]amino}carbonyl)phenyl]pyrazine-2-carboxamide]", "IC50": "50 to 1000"},
      {"smiles": "CNC(=O)c1nc(-c2cccc(C(=O)NCCOc3ccccc3)c2)cnc1N", "note": "[Example 198, 3-amino-N-methyl-6-[3-({[2-(phenyloxy)ethyl]amino}carbonyl)phenyl]pyrazine-2-carboxamide]", "IC50": "50 to 1000"},
      {"smiles": "CNC(=O)c1nc(-c2cccc(C(=O)NCCN3CCN(Cc4ccccc4)CC3)c2)cnc1N", "note": "[Example 199, 3-amino-N-methyl-6-{3-[({2-[4-(phenylmethyl)piperazin-1-yl]ethyl}amino)carbonyl]phenyl}pyrazine-2-carboxamide]", "IC50": "50 to 1000"},
      {"smiles": "CNC(=O)c1nc(-c2cccc(C(=O)NCC3CCN(Cc4ccccc4)CC3)c2)cnc1N", "note": "[Example 200, 3-amino-N-methyl-6-{3-[({[1-(phenylmethyl)piperidin-4-yl]methyl}amino)carbonyl]phenyl}pyrazine-2-carboxamide]", "IC50": "≥ 10000"},
      {"smiles": "CNC(=O)c1nc(-c2cccc(C(=O)NCc3ccoc3)c2)cnc1N", "note": "[Example 201, 3-amino-6-(3-{[(furan-3-ylmethyl)amino]carbonyl}phenyl)-N-methylpyrazine-2-carboxamide]", "IC50": "50 to 1000"},
      {"smiles": "CNC(=O)c1nc(-c2cccc(C(=O)NCC3COc4ccccc4O3)c2)cnc1N", "note": "(stereo not shown) [Example 202, 3-amino-6-(3-{[(2,3-dihydro-1,4-benzodioxin-2-ylmethyl)amino]carbonyl}phenyl)-N-methylpyrazine-2-carboxamide]", "IC50": "50 to 1000"},
      {"smiles": "CNC(=O)c1nc(-c2cccc(C(=O)NCc3ccco3)c2)cnc1N", "note": "[Example 203, 3-amino-6-(3-{[(furan-2-ylmethyl)amino]carbonyl}phenyl)-N-methylpyrazine-2-carboxamide]", "IC50": "50 to 1000"},
      {"smiles": "CNC(=O)c1nc(-c2cccc(C(=O)NCC3CN(Cc4ccccc4)CCO3)c2)cnc1N", "note": "(stereo not shown) [Example 204, 3-amino-N-methyl-6-{3-[({[4-(phenylmethyl)morpholin-2-yl]methyl}amino)carbonyl]phenyl}pyrazine-2-carboxamide]", "IC50": "50 to 1000"},
      {"smiles": "CNC(=O)c1nc(-c2cccc(C(=O)NCc3ccc4c(c3)OCCO4)c2)cnc1N", "note": "[Example 205, 3-amino-6-(3-{[(2,3-dihydro-1,4-benzodioxin-6-ylmethyl)amino]carbonyl}phenyl)-N-methylpyrazine-2-carboxamide]", "IC50": "< 50"},
      {"smiles": "CNC(=O)c1nc(-c2cccc(C(=O)NCc3ccc4c(c3)CCO4)c2)cnc1N", "note": "[Example 207, 3-amino-6-(3-{[(2,3-dihydro-1-benzofuran-5-ylmethyl)amino]carbonyl}phenyl)-N-methylpyrazine-2-carboxamide]", "IC50": "50 to 1000"},
      {"smiles": "CNC(=O)c1nc(-c2cccc(C(=O)NCc3cc(F)cc4c3OCOC4)c2)cnc1N", "note": "[Example 208, 3-amino-6-[3-({[(6-fluoro-4H-1,3-benzodioxin-8-yl)methyl]amino}carbonyl)phenyl]-N-methylpyrazine-2-carboxamide]", "IC50": "50 to 1000"},
      {"smiles": "CNC(=O)c1nc(-c2cccc(NC(=O)Cc3ccc(Cl)cc3Cl)c2)cnc1N", "note": "[Example 209, 3-amino-6-(3-{[(2,4-dichlorophenyl)acetyl]amino}phenyl)-N-methylpyrazine-2-carboxamide]", "IC50": "< 50"},
      {"smiles": "CNC(=O)c1nc(-c2cccc(NC(=O)Cc3ccc(Cl)c(Cl)c3)c2)cnc1N", "note": "[Example 210, 3-amino-6-(3-{[(3,4-dichlorophenyl)acetyl]amino}phenyl)-N-methylpyrazine-2-carboxamide]", "IC50": "50 to 1000"},
      {"smiles": "CNC(=O)c1nc(-c2cccc(NC(=O)Cc3ccc(C(F)(F)F)cc3)c2)cnc1N", "note": "[Example 211, 3-amino-N-methyl-6-[3-({[4-(trifluoromethyl)phenyl]acetyl}amino)phenyl]pyrazine-2-carboxamide]", "IC50": "50 to 1000"},
      {"smiles": "CNC(=O)c1nc(-c2cccc(C(=O)NCc3cc(C)cc(C)c3)c2)cnc1N", "note": "[Example 212, 3-amino-6-[3-({[(3,5-dimethylphenyl)methyl]amino}carbonyl)phenyl]-N-methylpyrazine-2-carboxamide]", "IC50": "50 to 1000"},
      {"smiles": "CNC(=O)c1nc(-c2cccc(C(=O)NCc3cc(Cl)ccc3C)c2)cnc1N", "note": "[Example 213, 3-amino-6-[3-({[(5-chloro-2-methylphenyl)methyl]amino}carbonyl)phenyl]-N-methylpyrazine-2-carboxamide]", "IC50": "50 to 1000"},
      {"smiles": "CNC(=O)c1nc(-c2cccc(C(=O)NCc3ccc(C)cc3C)c2)cnc1N", "note": "[Example 214, 3-amino-6-[3-({[(2,4-dimethylphenyl)methyl]amino}carbonyl)phenyl]-N-methylpyrazine-2-carboxamide]", "IC50": "50 to 1000"},
      {"smiles": "CNC(=O)c1nc(-c2cccc(C(=O)NCc3cccc(F)c3F)c2)cnc1N", "note": "[Example 215, 3-amino-6-[3-({[(2,3-difluorophenyl)methyl]amino}carbonyl)phenyl]-N-methylpyrazine-2-carboxamide]", "IC50": "1000 to 10000"},
      {"smiles": "CNC(=O)c1nc(-c2cccc(C(=O)NCc3ccc(SC)cc3)c2)cnc1N", "note": "[Example 216, 3-amino-N-methyl-6-{3-[({[4-(methylthio)phenyl]methyl}amino)carbonyl]phenyl}pyrazine-2-carboxamide]", "IC50": "< 50"},
      {"smiles": "CNC(=O)c1nc(-c2cccc(C(=O)NCC(C)C)c2)cnc1N", "note": "[Example 217, 3-amino-N-methyl-6-(3-{[(2-methylpropyl)amino]carbonyl}phenyl)pyrazine-2-carboxamide]", "IC50": "1000 to 10000"},
      {"smiles": "CNC(=O)c1nc(-c2cccc(C(=O)NCc3cccc(OC(F)(F)F)c3)c2)cnc1N", "note": "[Example 218, 3-amino-N-methyl-6-(3-{[({3-[(trifluoromethyl)oxy]phenyl}methyl)amino]carbonyl}phenyl)pyrazine-2-carboxamide]", "IC50": "1000 to 10000"}
    ]}
  ]
}
